Laboratory results: patent US8324254B2, “Oxadiazole substituted indazole derivatives for use as sphingosine 1-phosphate (S1P) agonists” (Glaxo Group Limited, priority 2007, dated 2012)

Biological target: T1, S1P1 receptor (Homo sapiens, UniProt P21453)
T1 construct: expressed in transfected cells; membranes
Assay: S1P1 GTPγS binding assay
Type: biochemical
Conditions: membranes of Rat Basophilic Leukaemia cells (RBL) stably expressing S1P1 receptor, 35S-GTPγS
Method: Rat Basophilic Leukaemia cells (RBL) stably expressing S1P1 receptor were grown to 80% confluency before being harvested into 10 ml Phospho-Buffered Saline (PBS) and centrifuged at 1200 rpm for 5 minutes. After removal of the supernatant, the pellet was re-suspended and homogenised in 20 volumes assay buffer (20 mM HEPES pH 7.4, 100 mM NaCl, 10 mM MgCl2.6H2O, 10 μM GDP Saponin 10 μg/ml). The membrane suspension was further centrifuged for 20 minutes at 20,000 rpm re-homogenised and spun again. Following the second centrifugation the pellet was resuspended in an appropriate volume (1 ml for each flask of cells) and assayed for protein concentration.
Concentrated stock of S1P was sonicated before serial dilutions were prepared from a starting concentration of 10^−5 M. Diluted membranes (10 μg/well) were incubated with various concentrations of S1P and 0.3 nM ^35S-GTPγS (NEN; specific activity 1250 Ci/mmol) in 96 deep well plates. Binding was performed at 30° C. for 45 minutes and terminated by harvesting the membranes onto GF/B filter plates using a Packard Universal Harvester. After drying the plates for 45 minutes, 50 μl of Microscint 0 was added to each well and binding measured on a Topcount NXT (Perkin Elmer). Data was analysed using Graphpad Prism 4 and expressed as percentage stimulation above basal. […]

T1 sequence (P21453 whole entry): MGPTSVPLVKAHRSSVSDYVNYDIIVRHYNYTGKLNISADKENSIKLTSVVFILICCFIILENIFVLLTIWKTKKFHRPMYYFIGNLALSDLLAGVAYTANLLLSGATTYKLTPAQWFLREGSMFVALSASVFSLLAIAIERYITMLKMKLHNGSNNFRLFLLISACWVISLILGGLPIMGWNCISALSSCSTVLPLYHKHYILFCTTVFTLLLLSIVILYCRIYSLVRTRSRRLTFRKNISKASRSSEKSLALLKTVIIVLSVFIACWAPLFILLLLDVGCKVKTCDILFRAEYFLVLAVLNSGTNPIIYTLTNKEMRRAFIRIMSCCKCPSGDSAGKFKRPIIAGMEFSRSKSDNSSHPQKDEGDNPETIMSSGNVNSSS

- EC50: < 1000 nM
SMILES: CC(C)Oc1ccc(-c2nc(-c3ccc4c(cnn4CCC(=O)O)c3)no2)cc1Cl [Example 1, 3-[5-(5-{3-Chloro-4-[(1-methylethyl)oxy]phenyl}-1,2,4-oxadiazol-3-yl)-1H-indazol-1-yl]propanoic acid]
